Experimental data taken from publication PMC8468039, “Development of New Meridianin/Leucettine-Derived Hybrid Small Molecules as Nanomolar Multi-Kinase Inhibitors with Antitumor Activity” (Biomedicines, 2021).
Read-outs that look alike come from different tables or passages of the source.

Experiments:
[1] = molecular target: T1, PDGFRα (Homo sapiens, UniProt P16234); assay: In vitro kinase inhibition assay (HotSpot, Reaction Biology); type: biochemical; details: single dose of 10 µM; 10 µM ATP as printed; read-out: Percent Inhibition, PDGFRα
T1 construct: purchased Reaction Biology Corp
Procedure: (§1) The in vitro kinase inhibition assay was carried out by Reaction Biology Corp. (Reaction Biology Corp., Chester, PA, USA) Kinase HotSpot^SM service (http://www.reactionbiology.com, accessed on 15 January 2021), following the previously reported methods. (For details, see Supplementary Material).
(§2) As mentioned in the introduction, to get insights about the kinase inhibition profile of the hybrid small molecule 5a, an in vitro screening over a panel of 14 cancer-related kinases was carried out. Accordingly, 10 µM concentrations of compound 5a were used in a kinase inhibition assay over various kinase groups and families in the presence of 10 µM ATP using HotSpotSM technology. To get a comprehensive picture of the inhibitory activities of the tested compound (5a) against the kinase panel, data are illustrated in Table 1. […] Compound 5a was also able to suppress the kinase activity of the epidermal growth factor receptor (EGFR), platelet-derived growth factor receptor-alpha (PDGFRα), and cyclin-dependent kinase 2 (CDK2) with modest inhibition values of 26.99 ± 0.9, 24.0 ± 0.4, and 20.1 ± 0.1%, respectively. […] Several studies have confirmed direct relationships between the most affected kinases (FMS, LCK, LYN, and DAPK1) and different human disorders including cancer.
(§3) 5. Protocol of Kinase assay
(§4) Kinases inhibitory activities were assessed by the HotSpot assay platform, which contained specific kinase/substrate pairs along with required cofactors. Base reaction buffer: 20 mM Hepes (pH 7.5), 10 mM MgCl2, 1 mM EGTA, 0.02% Brij35, 0.02 mg/ml BSA, 0.1 mM Na3VO4, 2 mM DTT, 1% DMSO. Testing compounds were dissolved in 100% DMSO to specific concentration. The serial dilution was conducted by Integra Viaflo Assist in DMSO. The reaction mixture containing the examined compound and 33P-ATP was incubated at room temperature for 2h and radioactivity was detected by filter-binding method. Kinase activity data were expressed as the percent remaining kinase activity in test samples compared to vehicle (dimethyl sulfoxide) reactions. IC50 values and curve fits were obtained using Prism (GraphPad Software).
(§5) 6. Biology raw data for IC50 determination
(§6) Paper ID Cpd ID NSC Number

[2] = molecular target: T2, KDR/VEGFR2 (Homo sapiens, UniProt P35968); assay: as above; type: biochemical; details: single dose of 10 µM; 10 µM ATP as printed; read-out: Percent Inhibition, KDR/VEGFR2
T2 construct: purchased Reaction Biology Corp
Procedure: as §1, §2, §3, §4, §5, §6

[3] = molecular target: T3, CDK2/cyclin A (Homo sapiens, UniProt P24941); assay: as above; type: biochemical; details: single dose of 10 µM; 10 µM ATP as printed; read-out: Percent Inhibition, CDK2/cyclin A
T3 construct: purchased Reaction Biology Corp
Procedure: as §1, §2, §3, §4, §5, §6

[4] = molecular target: T4, LYN (Homo sapiens, UniProt P07948); assay: as above; type: biochemical; details: for inhibition at 10 µM: single dose of 10 µM, 10 µM ATP as printed, read-out: Percent Inhibition, LYN
T4 construct: purchased Reaction Biology Corp
Procedure: as §1, §2, §3, §4, §5, §6

[5] = molecular target: T5, FLT1/VEGFR1 (Homo sapiens, UniProt P17948); assay: as above; type: biochemical; details: single dose of 10 µM; 10 µM ATP as printed; read-out: Percent Inhibition, FLT1/VEGFR1
T5 construct: purchased Reaction Biology Corp
Procedure: as §1, §2, §3, §4, §5, §6

[6] = molecular target: T6, BRAF (Homo sapiens, UniProt P15056); assay: as above; type: biochemical; details: single dose of 10 µM; 10 µM ATP as printed; read-out: Percent Inhibition, BRAF
T6 construct: purchased Reaction Biology Corp
Procedure: as §1, §2, §3, §4, §5, §6

[7] = molecular target: T7, DAPK1 (Homo sapiens, UniProt P53355); assay: as above; type: biochemical; details: single dose of 10 µM; read-out: Percent Inhibition, DAPK1
T7 construct: purchased Reaction Biology Corp
Procedure: as §1, §2, §3, §4, §5, §6

[8] = molecular target: T8, LCK (Homo sapiens, UniProt P06239); assay: as above; type: biochemical; details: for inhibition at 10 µM: single dose of 10 µM, 10 µM ATP as printed, read-out: Percent Inhibition, LCK
T8 construct: purchased Reaction Biology Corp
Procedure: as §1, §2, §3, §4, §5, §6

[9] = molecular target: T9, EGFR (Homo sapiens, UniProt P00533); assay: as above; type: biochemical; details: single dose of 10 µM; 10 µM ATP as printed; read-out: Percent Inhibition, EGFR
T9 construct: purchased Reaction Biology Corp
Procedure: as §1, §2, §3, §4, §5, §6

[10] = test system: UACC-62; assay: NCI growth inhibition (SRB) assay; type: cell-based; details: Homo sapiens, UACC-62, Melanoma, single dose 10 µM, 48 h, read-out: Percent Growth Inhibition (GI)
Procedure: (§7) The antitumor assay was performed according to the protocol of the Drug Evaluation Branch, NCI, Bethesda. A 48 h drug exposure protocol was adopted, and sulforhodamine B (SRB) assay was utilized to assess the cell growth and viability, as reported earlier.
(§8) The inhibition results of tumor cell growth by the newly synthesized compounds (5a–5g) are described in Table 4. The reported measurements have been performed at the NIH National Cancer Institute, USA by a standardized assay including a panel of 60 different tumor cell lines (Supplementary Data). The following cancer cell types were included in these assays: Leukemia, non-small cell lung cancer, colon cancer, CNS cancer, melanoma, ovarian cancer, renal cancer, prostate, and breast cancer. […] Additionally, the 3,4-dimethoxy substituted compound (5b) also suffered poor activity against the cancer cell lines.

[11] = test system: CCRF-CEM; assay: NCI growth inhibition (SRB) assay; type: cell-based; details: Homo sapiens, Leukemia, single dose 10 µM, 48 h, read-out: Percent Growth Inhibition (GI)
Procedure: as §7, §8

[12] = test system: HOP-92; assay: NCI growth inhibition (SRB) assay; type: cell-based; details: Homo sapiens, HOP-92, Non-Small Cell Lung Cancer, single dose 10 µM, 48 h, read-out: Percent Growth Inhibition (GI)
Procedure: as §7, §8

[13] = test system: RXF 393; assay: NCI growth inhibition (SRB) assay; type: cell-based; details: RXF 393, Renal Cancer, single dose 10 µM; for inhibition at 10 µM: Homo sapiens, read-out: Percent Growth Inhibition (GI)
Procedure: as §7, §8

[14] = test system: NCI-H522; assay: NCI growth inhibition (SRB) assay; type: cell-based; details: Homo sapiens, NCI-H522, Non-Small Cell Lung Cancer, single dose 10 µM, 48 h, read-out: Percent Growth Inhibition (GI)
Procedure: as §7, §8

[15] = test system: UO-31; assay: NCI growth inhibition (SRB) assay; type: cell-based; details: Homo sapiens, UO-31, Renal Cancer, single dose 10 µM, 48 h, read-out: Percent Growth Inhibition (GI)
Procedure: as §7, §8

[16] = test system: MOLT-4; assay: NCI growth inhibition (SRB) assay; type: cell-based; details: Homo sapiens, MOLT-4, Leukemia, single dose 10 µM, 48 h, read-out: Percent Growth Inhibition (GI)
Procedure: as §7, §8

[17] = test system: HCT-116; assay: NCI growth inhibition (SRB) assay; type: cell-based; details: Homo sapiens, HCT-116, Colon Cancer, single dose 10 µM, 48 h, read-out: Percent Growth Inhibition (GI)
Procedure: as §7, §8

[18] = test system: panel of 60 different tumor cell lines; assay: NCI antitumor assay, panel of 60 tumor cell lines; type: cell-based; details: single dose 10 µM, result in words
Procedure: as §7, §8

[19] = 10-dose, 3-fold serial dilution starting at 100 μM

T7 sequence (P53355 whole entry): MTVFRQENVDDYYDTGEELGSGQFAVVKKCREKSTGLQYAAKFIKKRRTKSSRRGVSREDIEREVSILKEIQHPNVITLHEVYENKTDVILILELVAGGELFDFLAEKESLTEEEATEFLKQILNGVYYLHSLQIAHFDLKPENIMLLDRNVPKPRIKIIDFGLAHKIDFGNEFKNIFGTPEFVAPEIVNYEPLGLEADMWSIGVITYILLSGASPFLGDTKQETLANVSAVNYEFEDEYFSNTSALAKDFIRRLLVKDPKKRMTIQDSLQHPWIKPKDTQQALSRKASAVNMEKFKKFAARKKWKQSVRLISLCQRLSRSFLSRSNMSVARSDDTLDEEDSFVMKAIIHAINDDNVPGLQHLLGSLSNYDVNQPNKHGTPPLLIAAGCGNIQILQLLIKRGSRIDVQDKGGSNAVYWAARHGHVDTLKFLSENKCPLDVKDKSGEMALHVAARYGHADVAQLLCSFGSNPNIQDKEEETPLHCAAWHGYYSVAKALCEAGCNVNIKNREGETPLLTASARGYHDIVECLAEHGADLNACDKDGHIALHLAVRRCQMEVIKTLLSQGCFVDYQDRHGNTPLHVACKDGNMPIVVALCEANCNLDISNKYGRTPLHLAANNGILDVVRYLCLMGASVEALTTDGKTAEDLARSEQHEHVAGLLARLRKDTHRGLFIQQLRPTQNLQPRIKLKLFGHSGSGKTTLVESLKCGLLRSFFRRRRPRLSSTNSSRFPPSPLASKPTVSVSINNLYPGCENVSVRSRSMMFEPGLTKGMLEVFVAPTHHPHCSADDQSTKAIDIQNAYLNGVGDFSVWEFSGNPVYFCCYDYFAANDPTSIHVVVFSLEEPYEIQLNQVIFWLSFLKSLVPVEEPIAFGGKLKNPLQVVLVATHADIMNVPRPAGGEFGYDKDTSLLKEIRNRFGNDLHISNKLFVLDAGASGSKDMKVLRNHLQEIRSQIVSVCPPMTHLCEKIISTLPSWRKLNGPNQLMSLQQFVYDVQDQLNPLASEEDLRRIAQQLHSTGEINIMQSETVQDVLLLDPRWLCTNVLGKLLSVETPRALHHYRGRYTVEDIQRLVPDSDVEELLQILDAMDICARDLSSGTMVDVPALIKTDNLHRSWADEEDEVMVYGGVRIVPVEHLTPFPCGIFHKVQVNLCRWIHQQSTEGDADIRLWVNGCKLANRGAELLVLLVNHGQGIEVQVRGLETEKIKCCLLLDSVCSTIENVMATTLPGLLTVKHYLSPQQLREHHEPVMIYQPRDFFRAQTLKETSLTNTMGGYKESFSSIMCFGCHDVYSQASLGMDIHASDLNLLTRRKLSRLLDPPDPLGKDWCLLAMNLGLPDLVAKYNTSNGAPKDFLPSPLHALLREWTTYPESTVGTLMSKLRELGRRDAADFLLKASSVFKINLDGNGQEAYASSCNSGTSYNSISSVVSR
T4 sequence (P07948 whole entry): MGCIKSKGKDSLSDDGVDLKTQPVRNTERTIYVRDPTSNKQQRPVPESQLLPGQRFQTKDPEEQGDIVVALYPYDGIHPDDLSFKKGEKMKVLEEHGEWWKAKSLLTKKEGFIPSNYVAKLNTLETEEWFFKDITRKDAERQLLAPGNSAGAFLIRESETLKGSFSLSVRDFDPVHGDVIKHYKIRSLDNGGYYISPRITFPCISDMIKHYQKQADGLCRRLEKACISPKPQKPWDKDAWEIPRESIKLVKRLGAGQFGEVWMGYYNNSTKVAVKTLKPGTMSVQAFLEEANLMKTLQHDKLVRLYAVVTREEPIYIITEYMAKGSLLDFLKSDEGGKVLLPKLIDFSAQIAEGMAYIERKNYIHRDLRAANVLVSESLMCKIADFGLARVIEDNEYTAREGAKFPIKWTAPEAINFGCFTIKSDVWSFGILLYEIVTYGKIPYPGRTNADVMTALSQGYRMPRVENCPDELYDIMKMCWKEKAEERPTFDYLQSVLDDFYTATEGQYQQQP
T8 sequence (P06239 whole entry): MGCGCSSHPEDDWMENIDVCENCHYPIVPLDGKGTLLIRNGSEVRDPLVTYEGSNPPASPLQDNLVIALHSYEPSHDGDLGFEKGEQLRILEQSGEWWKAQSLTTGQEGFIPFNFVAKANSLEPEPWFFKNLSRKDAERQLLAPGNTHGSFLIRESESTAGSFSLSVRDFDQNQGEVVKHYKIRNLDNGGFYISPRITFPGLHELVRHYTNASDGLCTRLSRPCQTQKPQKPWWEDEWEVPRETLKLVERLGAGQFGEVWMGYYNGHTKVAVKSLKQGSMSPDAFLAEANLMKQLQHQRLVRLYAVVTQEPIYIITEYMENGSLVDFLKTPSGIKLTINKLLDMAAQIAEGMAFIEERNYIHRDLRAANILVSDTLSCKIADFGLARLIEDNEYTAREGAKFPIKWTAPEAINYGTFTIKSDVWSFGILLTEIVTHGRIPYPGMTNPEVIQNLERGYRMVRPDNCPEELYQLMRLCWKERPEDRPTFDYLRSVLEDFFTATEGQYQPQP
T5 sequence (P17948 27-1338): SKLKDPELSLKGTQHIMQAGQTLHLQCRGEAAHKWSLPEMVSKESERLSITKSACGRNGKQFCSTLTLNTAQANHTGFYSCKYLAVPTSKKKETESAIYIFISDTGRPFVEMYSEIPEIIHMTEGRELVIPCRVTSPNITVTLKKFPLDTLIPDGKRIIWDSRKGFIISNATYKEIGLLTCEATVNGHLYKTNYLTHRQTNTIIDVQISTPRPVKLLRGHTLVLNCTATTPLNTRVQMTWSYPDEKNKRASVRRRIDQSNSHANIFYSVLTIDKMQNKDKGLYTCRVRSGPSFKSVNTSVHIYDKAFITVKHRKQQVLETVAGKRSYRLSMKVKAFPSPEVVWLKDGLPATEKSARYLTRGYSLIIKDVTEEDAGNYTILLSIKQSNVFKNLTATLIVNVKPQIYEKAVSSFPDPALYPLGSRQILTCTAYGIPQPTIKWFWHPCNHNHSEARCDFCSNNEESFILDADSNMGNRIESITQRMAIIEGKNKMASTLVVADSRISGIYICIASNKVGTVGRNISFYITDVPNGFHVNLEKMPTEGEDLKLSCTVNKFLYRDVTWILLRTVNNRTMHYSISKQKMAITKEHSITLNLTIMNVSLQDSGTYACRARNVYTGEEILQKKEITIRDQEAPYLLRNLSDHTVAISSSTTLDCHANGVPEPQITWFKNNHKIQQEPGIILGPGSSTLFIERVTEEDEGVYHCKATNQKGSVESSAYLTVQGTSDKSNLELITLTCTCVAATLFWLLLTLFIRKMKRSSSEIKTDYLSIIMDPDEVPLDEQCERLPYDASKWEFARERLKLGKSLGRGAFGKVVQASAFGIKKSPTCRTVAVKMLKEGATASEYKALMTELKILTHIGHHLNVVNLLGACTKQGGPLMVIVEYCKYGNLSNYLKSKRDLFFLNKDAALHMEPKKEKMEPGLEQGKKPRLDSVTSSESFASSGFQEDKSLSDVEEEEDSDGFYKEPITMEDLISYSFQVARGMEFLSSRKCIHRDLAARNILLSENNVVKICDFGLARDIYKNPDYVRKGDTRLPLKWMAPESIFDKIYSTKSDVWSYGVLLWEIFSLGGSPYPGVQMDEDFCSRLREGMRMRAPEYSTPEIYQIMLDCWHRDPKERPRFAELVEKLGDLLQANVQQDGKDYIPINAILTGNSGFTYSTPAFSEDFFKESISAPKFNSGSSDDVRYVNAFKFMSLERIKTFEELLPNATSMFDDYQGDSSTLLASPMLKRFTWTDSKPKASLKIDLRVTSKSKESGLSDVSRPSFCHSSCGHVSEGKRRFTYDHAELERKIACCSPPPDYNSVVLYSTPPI
T2 sequence (P35968 20-1356): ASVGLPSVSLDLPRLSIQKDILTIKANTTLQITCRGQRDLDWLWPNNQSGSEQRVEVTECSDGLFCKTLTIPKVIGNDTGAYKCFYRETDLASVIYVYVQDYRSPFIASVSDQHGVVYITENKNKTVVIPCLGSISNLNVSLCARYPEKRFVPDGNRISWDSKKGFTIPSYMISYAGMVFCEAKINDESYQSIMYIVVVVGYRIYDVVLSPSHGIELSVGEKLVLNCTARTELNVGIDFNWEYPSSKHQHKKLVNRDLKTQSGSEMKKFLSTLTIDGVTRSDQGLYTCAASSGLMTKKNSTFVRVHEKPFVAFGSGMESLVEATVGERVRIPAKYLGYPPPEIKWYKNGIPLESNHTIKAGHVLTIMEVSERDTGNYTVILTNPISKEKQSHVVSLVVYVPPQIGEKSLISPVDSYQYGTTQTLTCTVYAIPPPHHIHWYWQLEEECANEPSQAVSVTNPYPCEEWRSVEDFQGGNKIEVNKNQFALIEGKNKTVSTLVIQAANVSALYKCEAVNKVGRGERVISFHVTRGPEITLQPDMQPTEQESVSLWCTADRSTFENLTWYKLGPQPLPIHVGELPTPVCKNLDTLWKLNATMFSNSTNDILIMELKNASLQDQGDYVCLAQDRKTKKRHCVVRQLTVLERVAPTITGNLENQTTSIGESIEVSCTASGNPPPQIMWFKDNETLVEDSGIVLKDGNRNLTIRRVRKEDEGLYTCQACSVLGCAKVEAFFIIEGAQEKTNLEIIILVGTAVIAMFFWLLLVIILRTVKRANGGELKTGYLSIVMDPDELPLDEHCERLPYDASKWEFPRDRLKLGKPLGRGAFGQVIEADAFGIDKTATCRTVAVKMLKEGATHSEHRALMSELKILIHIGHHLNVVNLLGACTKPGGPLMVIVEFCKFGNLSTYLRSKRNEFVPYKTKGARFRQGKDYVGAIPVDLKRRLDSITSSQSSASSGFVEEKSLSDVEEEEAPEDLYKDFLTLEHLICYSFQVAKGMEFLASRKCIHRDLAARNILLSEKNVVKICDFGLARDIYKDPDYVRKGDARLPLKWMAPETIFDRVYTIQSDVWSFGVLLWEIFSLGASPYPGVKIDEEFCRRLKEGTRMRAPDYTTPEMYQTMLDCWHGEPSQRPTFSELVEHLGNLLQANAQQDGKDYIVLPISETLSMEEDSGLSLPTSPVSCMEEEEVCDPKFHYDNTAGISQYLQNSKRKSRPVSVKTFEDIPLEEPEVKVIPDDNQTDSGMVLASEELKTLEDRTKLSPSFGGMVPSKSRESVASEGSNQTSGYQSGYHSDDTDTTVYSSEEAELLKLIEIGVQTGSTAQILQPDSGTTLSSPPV

| SMILES | inhibition at 10 µM [4] [%] | inhibition at 10 µM [7] [%] | inhibition at 10 µM [8] [%] | melting point [°C] | inhibition at 10 µM [10] [%] | inhibition at 10 µM [11] [%] | inhibition at 10 µM [12] [%] | inhibition at 10 µM ([13]; 48 h) [%] | inhibition at 10 µM [14] [%] | inhibition at 10 µM [15] [%] | inhibition at 10 µM [16] [%] | inhibition at 10 µM [17] [%] | inhibitory effects on the different cancer cell lines [18] | further results |
| --- | --- | --- | --- | --- | --- | --- | --- | --- | --- | --- | --- | --- | --- | --- |
| COc1ccc(Oc2nc(Nc3ccc(N4CCOCC4)cc3)ncc2NC(=O)c2ccc3c(c2)OCO3)cc1 [5a, N-(4-(4-Methoxyphenoxy)-2-((4-morpholinophenyl)amino)pyrimidin-5-yl)benzo[d][1,3]dioxole-5-carboxamide] | 75.2 | 55 ± 1.1 | 81.4 ± 0.6 | 205.9 to 206.9 | 7.38 | 14.5 | 6.16 | 50.5 | 22.7 | 36.7 | 31.1 | 14.6 | – | inhibition at 10 µM [1]: 24 ± 0.4%; inhibition at 10 µM [2]: 7.9 ± 1.4%; inhibition at 10 µM [3]: 20.1 ± 0.1%; inhibition at 10 µM [5]: -2.4 ± 1.7%; inhibition at 10 µM [6]: 4.1 ± 10.5%; inhibition at 10 µM [9]: 27 ± 0.9% |
| COc1ccc(Oc2nc(Nc3ccc(N4CCOCC4)cc3)ncc2NC(=O)c2ccc(OC)c(OC)c2)cc1 [5b, 3,4-Dimethoxy-N-(4-(4-methoxyphenoxy)-2-((4-morpholinophenyl)amino)pyrimidin-5-yl)benzamide] | 36.9 ± 4.5 | 65 ± 1.2 | 62.3 ± 0.8 | 119.1 to 120.1 | 0.1 | 5.37 | -1.19 | 20.4 | -3.5 | 33.6 | 19.9 | 6.01 | moderate to poor | – |
| COc1ccc(Oc2nc(Nc3ccc(N4CCOCC4)cc3)ncc2NC(=O)c2cc(OC)c(OC)c(OC)c2)cc1 [5c, 3,4,5-Trimethoxy-N-(4-(4-methoxyphenoxy)-2-((4-morpholinophenyl)amino)pyrimidin-5-yl)benzamide] | -1.6 ± 0.3 | 50 ± 0.1 | 19.4 ± 0.9 | 179.5 to 180.5 | -0.63 | 30.5 | 15.8 | 50.6 | 2.25 | 42.3 | 31.6 | 23.9 | – | – |
| CCOc1cc(OCC)cc(C(=O)Nc2cnc(Nc3ccc(N4CCOCC4)cc3)nc2Oc2ccc(OC)cc2)c1 [5d, 3,5-Diethoxy-N-(4-(4-methoxyphenoxy)-2-((4-morpholinophenyl)amino)pyrimidin-5-yl)benzamide] | 31.5 ± 5.8 | 51.6 ± 0.5 | 38.3 ± 4.2 | – | 12 | 26.1 | 3.34 | 27.5 | 29.8 | 29.9 | 38.2 | 6.73 | moderate to poor | – |
| COc1ccc(Oc2nc(Nc3ccc(N4CCOCC4)cc3)ncc2NC(=O)Cc2cc(OC)cc(OC)c2)cc1 [5e, 2-(3,5-Dimethoxyphenyl)-N-(4-(4-methoxyphenoxy)-2-((4-morpholinophenyl)amino)pyrimidin-5-yl)acetamide] | 7.9 ± 0.4 | 47.1 ± 0.7 | 39.5 ± 0.4 | 152.7 to 153.7 | 1.34 | -4.73 | 4.46 | -8.16 | 8.4 | 19.4 | -0.81 | 0.34 | moderate to poor | – |
| COc1ccc(Oc2nc(Nc3ccc(N4CCOCC4)cc3)ncc2NC(=O)c2ccnc([N+](=O)[O-])c2)cc1 [5f, N-(4-(4-Methoxyphenoxy)-2-((4-morpholinophenyl)amino)pyrimidin-5-yl)-2-nitroisonicotinamide] | 34.1 ± 2.2 | 65.5 ± 1.4 | 72.6 ± 0.6 | 170 to 171 | 21.4 | 16.7 | 1.12 | -0.36 | 9.77 | 29 | -5.98 | -0.19 | moderate to poor | – |
| COc1ccc(Oc2nc(Nc3ccc(N4CCOCC4)cc3)ncc2NC(=O)c2cccc(SC)c2)cc1 [5g, N-(4-(4-Methoxyphenoxy)-2-((4-morpholinophenyl)amino)pyrimidin-5-yl)-3-(methylthio)benzamide] | 96.4 ± 0.1 | 54.6 ± 0.8 | 96.9 ± 0.3 | – | 14.7 | 13 | 20.2 | – | 26.4 | 43.7 | 43.1 | 23.7 | – | IC50 [4, 19]: 169 ± 31 nM; IC50 [8, 19]: 87.7 ± 8.3 nM; fold more potent than imatinib over LCK ([8]; from IC50 values): ~2 fold; inhibition at 10 µM ([13]; RXF 393, 48 h): 70%; Percent Growth Inhibition (GI) ([13]; 48 h): 70.1% |
